In brackets after ≈: the same amount, converted by molar mass. Where two headings read alike, the source gives them in different places.
Key:
[1] = ester bond, chlorobenzene, 1.0 mM, 150.0 °C, 16.0 h
[2] = system: S. pyogenes ATCC 19615; assay: CLSI broth dilution MIC determination; format: cell-based; conditions: Streptococcus pyogenes, ATCC19615, S. pyogenes ATCC 19615 (MP-19); read-out: MIC
[3] = system: K. pneumoniae KPC-2; assay: CLSI broth dilution MIC determination; format: cell-based; conditions: Klebsiella pneumoniae, KPC2, read-out: MIC
[4] = system: E. faecalis ATCC 29212; assay: CLSI broth dilution MIC determination; format: cell-based; conditions: Enterococcus faecalis, ATCC29212, E. faecalis ATCC 29212 (MP-24); read-out: MIC
[5] = system: S. pyogenes Macrolide-resistant; assay: CLSI broth dilution MIC determination; format: cell-based; conditions: Streptococcus pyogenes, S. pyogenes Macrolide-resistant (MP-625 UNT-014); read-out: MIC
[6] = system: A. baumannii chromosomal class C; assay: CLSI broth dilution MIC determination; format: cell-based; conditions: Acinetobacter baumannii, read-out: MIC
[7] = system: A. baumannii IMP-4; assay: CLSI broth dilution MIC determination; format: cell-based; conditions: Acinetobacter baumannii, IMP4, read-out: MIC
[8] = system: A. baumannii imipenem-resistant; assay: CLSI broth dilution MIC determination; format: cell-based; conditions: Acinetobacter baumannii, read-out: MIC
[9] = system: E. coli NDM-1; assay: CLSI broth dilution MIC determination; format: cell-based; conditions: Escherichia coli, NDM1, read-out: MIC
In short: (§1)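 Compounds are serially diluted in broth per CLSI standard methods to give the MIC; azithromycin and solithromycin act as comparator macrolides in many cases, and resistance genotypes may be inducible or constitutive.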

[10] = system: S. aureus erm A genotype; assay: CLSI broth dilution MIC determination; format: cell-based; conditions: Staphylococcus aureus; S. aureus erm A genotype (MP-620 UNT-146); read-out: MIC
In short: as §1

[11] = system: S. aureus USA600, GISA; assay: CLSI broth dilution MIC determination; format: cell-based; conditions: Staphylococcus aureus; S. aureus USA600, GISA (MP-619 UNT-120); read-out: MIC
In short: as §1

[12] = system: S. pneumoniae ATCC 49619; assay: CLSI broth dilution MIC determination; format: cell-based; conditions: Streptococcus pneumoniae, ATCC49619, S. pneumoniae ATCC 49619 (MP-21); read-out: MIC
In short: as §1

[13] = system: S. pneumoniae erm B + tet(M,O) genotype; assay: CLSI broth dilution MIC determination; format: cell-based; conditions: Streptococcus pneumoniae
In short: as §1

[14] = system: E. coli ATCC 25922; assay: CLSI broth dilution MIC determination; format: cell-based; conditions: Escherichia coli, ATCC25922, E. coli ATCC 25922 (MP-4); read-out: MIC
In short: as §1

[15] = system: E. coli TEM-1; assay: CLSI broth dilution MIC determination; format: cell-based; conditions: Escherichia coli, TEM1
In short: as §1

[16] = system: K. pneumoniae TEM-10; assay: CLSI broth dilution MIC determination; format: cell-based; conditions: Klebsiella pneumoniae, TEM10, read-out: MIC
[17] = system: E. coli CTX-M-14; assay: CLSI broth dilution MIC determination; format: cell-based; conditions: Escherichia coli, CTXM14, read-out: MIC
In short: as §1

[18] = system: S. aureus MRSA: USA300; assay: CLSI broth dilution MIC determination; format: cell-based; conditions: Staphylococcus aureus; S. aureus MRSA: USA300 (MP-549, msr(a)); read-out: MIC
In short: as §1

[19] = system: S. aureus MRSA: USA100; assay: CLSI broth dilution MIC determination; format: cell-based; conditions: Staphylococcus aureus; S. aureus MRSA: USA100 (MP-618 UNT-096); read-out: MIC
In short: as §1

[20] = system: H. influenzae ATCC49247; assay: CLSI broth dilution MIC determination; format: cell-based; conditions: Haemophilus influenzae, read-out: MIC
In short: as §1

[21] = system: S. pneumoniae mef A genotype (second strain so labelled); assay: CLSI broth dilution MIC determination; format: cell-based; conditions: Streptococcus pneumoniae, second strain (MP-627 UNT-039), read-out: MIC
In short: as §1

[22] = system: S. aureus ATCC 29213; assay: CLSI broth dilution MIC determination; format: cell-based; conditions: Staphylococcus aureus, ATCC29213; S. aureus ATCC 29213 (MP-12); read-out: MIC
In short: as §1

[23] = system: S. pneumoniae erm B + mef A genotype; assay: CLSI broth dilution MIC determination; format: cell-based; conditions: Streptococcus pneumoniae
In short: as §1

[24] = system: S. pneumoniae mef A genotype (first strain so labelled); assay: CLSI broth dilution MIC determination; format: cell-based; conditions: Streptococcus pneumoniae, first strain (MP-626 UNT-038)
In short: as §1

[25] = system: A. baumannii ATCC 19606; assay: CLSI broth dilution MIC determination; format: cell-based; conditions: Acinetobacter baumannii, ATCC19606; A. baumannii ATCC 19606 (MP-15); read-out: MIC
[26] = system: E. faecalis Vancomycin-resistant; assay: CLSI broth dilution MIC determination; format: cell-based; conditions: Enterococcus faecalis, E. faecalis Vancomycin-resistant (UNT-039); read-out: MIC
[27] = system: K. pneumoniae SHV-12; assay: CLSI broth dilution MIC determination; format: cell-based; conditions: Klebsiella pneumoniae, SHV12, read-out: MIC
[28] = system: P. aeruginosa HPA101-1477; assay: CLSI broth dilution MIC determination; format: cell-based; conditions: Pseudomonas aeruginosa, HPA1011477, read-out: MIC
[29] = system: H. influenzae Erythro >4, Azithro 1; assay: CLSI broth dilution MIC determination; format: cell-based; conditions: Haemophilus influenzae; read-out: MIC
Text: MIC data was collected for the novel macrolides that this platform has produced against over 21 unique strains of B. subtilis, E. coli, S. aureus, S. pneumoniae, and H. influenzae, including several multidrug-resistant strains, with a special focus on macrolide resistant mechanisms (vide supra). […] CLSI standard procedures for broth dilution MIC determination were used. […] These genotypes can be constitutive or inducible.

[30] = system: P. aeruginosa ATCC 27853; assay: CLSI broth dilution MIC determination; format: cell-based; conditions: Pseudomonas aeruginosa, ATCC27853; P. aeruginosa ATCC 27853 (MP-3); read-out: MIC
[31] = system: K. pneumoniae ATCC 10031; assay: CLSI broth dilution MIC determination; format: cell-based; conditions: Klebsiella pneumoniae, ATCC10031, K. pneumoniae ATCC 10031 (MP-14); read-out: MIC

`C=C1C(=O)[C@H](C)C[C@@](C)(OC)[C@H](O[C@@H]2O[C@H](C)C[C@H](N(C)C)[C@H]2OC(=O)OC)[C@@H](C)C(=O)C(C)C(=O)O[C@H](CC)[C@@]2(C)OC(=O)N(CCCCN=[N+]=[N-])[C@H]12` (some centres unmarked) gave a ring closure, yield of all isomers ([1]; from C=C(C(=O)[C@H](C)C[C@@](C)(OC)[C@H](O[C@@H]1O[C@H](C)C[C@H](N(C)C)[C@H]1OC(=O)OC)[C@@H](C)C1=C(C)C(=O)OC(C)(C)O1)[C@H]1N(CCCCN=[N+]=[N-])C(=O)O[C@]1(C)[C@H](O)CC) of 23%.

`CC[C@H]1OC(=O)[C@H](C)C(=O)[C@H](C)[C@@H](O[C@@H]2O[C@H](C)C[C@H](N(C)C)[C@H]2OC(=O)OC)[C@](C)(OC)C[C@@H](C)C(=O)[C@H](C)[C@H]2N(CCCCN=[N+]=[N-])C(=O)O[C@]12C` showed a ring closure, yield of all isomers ([1]; from CC[C@@H](O)[C@@]1(C)OC(=O)N(CCCCN=[N+]=[N-])[C@@H]1[C@@H](C)C(=O)[C@H](C)C[C@@](C)(OC)[C@H](O[C@@H]1O[C@H](C)C[C@H](N(C)C)[C@H]1OC(=O)OC)[C@@H](C)C1=C(C)C(=O)OC(C)(C)O1, none (thermal, dioxinone to acylketene)) of 52%.

With `CC[C@H]1OC(=O)[C@H](C)C(=O)[C@H](C)[C@@H](O[C@@H]2OC(C)CC(N(C)C)C2O)[C@](C)(OC)C[C@@H](C)C(=O)C[C@H]2N(CCCCn3cc(-c4cccc(N)c4)nn3)C(=O)O[C@]12C` (some centres unmarked) [FSM-21535] the MIC [2] was ≤ 0.0312 µg/mL, the MIC [3] was > 32 µg/mL and the MIC [4] was ≤ 0.0312 µg/mL. For the same molecule, the MIC [5] was 0.5 µg/mL (≈ 0.615 µM), the MIC [6] was > 32 µg/mL and the MIC [7] was > 32 µg/mL. The MIC [8] was > 32 µg/mL, the MIC [9] was > 32 µg/mL and the MIC [10] was > 32 µg/mL. The MIC [11] was > 32 µg/mL, the MIC [12] was ≤ 0.0312 µg/mL and the MIC [13] was ≤ 0.0312 µg/mL. For the same molecule, the MIC [14] was > 32 µg/mL, the MIC [15] was > 32 µg/mL and the MIC [16] was > 32 µg/mL. The MIC [17] was > 32 µg/mL, the MIC [18] was 32 µg/mL (≈ 39.4 µM) and the MIC [19] was > 32 µg/mL. The MIC [20] was 4 µg/mL (≈ 4.92 µM), the MIC [21] was 0.5 µg/mL (≈ 0.615 µM) and the MIC [22] was 16 µg/mL (≈ 19.7 µM). For the same molecule, the MIC [23] was 8 µg/mL (≈ 9.84 µM), the MIC [24] was 0.0625 µg/mL (≈ 0.0769 µM) and the MIC [25] was > 32 µg/mL. The MIC [26] was > 32 µg/mL, the MIC [27] was > 32 µg/mL and the MIC [28] was > 32 µg/mL. The MIC [29] was 8 µg/mL (≈ 9.84 µM), the MIC [30] was > 32 µg/mL and the MIC [31] was 4 µg/mL (≈ 4.92 µM).
